Laboratory results taken from patent publication US7037922B1, “Aryl fused 2,4-disubstituted pyridines: NK3 receptor ligands” (Neurogen Corporation, priority 2000, dated 2006).
pIC50: −log10 of the molar value.

Target: T1, NK-3 receptor (Homo sapiens, UniProt P29371)
T1 construct: expressed in transfected cells; total cellular membranes used
T1 sequence (P29371 1-465): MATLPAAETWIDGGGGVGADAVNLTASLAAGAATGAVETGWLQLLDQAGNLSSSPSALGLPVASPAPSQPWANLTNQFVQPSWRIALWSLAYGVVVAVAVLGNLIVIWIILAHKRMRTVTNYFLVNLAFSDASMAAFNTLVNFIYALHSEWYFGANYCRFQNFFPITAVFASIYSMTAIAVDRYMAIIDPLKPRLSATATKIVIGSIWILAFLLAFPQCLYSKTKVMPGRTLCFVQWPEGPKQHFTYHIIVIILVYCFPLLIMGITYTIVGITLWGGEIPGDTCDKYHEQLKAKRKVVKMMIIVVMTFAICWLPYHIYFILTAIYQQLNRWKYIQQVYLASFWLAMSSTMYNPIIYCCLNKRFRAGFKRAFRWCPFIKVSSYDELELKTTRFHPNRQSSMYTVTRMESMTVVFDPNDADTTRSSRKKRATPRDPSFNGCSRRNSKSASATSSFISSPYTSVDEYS
Assay: NK3 receptor binding assay (displacement of 125I-methylPhe7-neurokinin B)
Details: membranes of Chinese hamster ovary cells expressing cloned human NK-3 receptor; 0.15 nM 125I-methylPhe7-neurokinin B; 2 hours at 4° C.
Protocol: The following assay is a standard assay of NK3 receptor binding, which is used to determine the NK-3 receptor binding affinity of compounds.
Assays are performed as described in Krause et al (Proc. Natl. Acad. Sci. USA 94: 310–315, 1997). The NK-3 receptor complementary DNA was cloned from human hypothalamic RNA using standard procedures. The receptor cDNA was inserted into the expression vector pM^2 to transfect the mammalian Chinese hamster ovary cell line, and a stably expressing clonal cell line was isolated, characterized and used for the current experiments. Cells are grown in minimal essential medium alpha containing 10% fetal bovine serum and 0.8 mg G418 per ml. Cells were liberated from cell culture plates with No-zyme (PBS base, JRH Biosciences), and harvested by low speed centrifugation. The cell pellet was homogenized in TBS (0.05 m TrisHCl, 120 mM NaCl, pH 7.4) with a Polytron homogenizer at setting 5 for 20 seconds, and total cellular membranes were isolated by centrifugation at 47,500×g for 10 minutes. The membrane pellet was resuspended by homogenization with the Polytron as above, and the membranes were isolated by centrifugation at 47,500×g for 10 minutes. This final membrane pellet was resuspended in TBS at a protein concentration of 350 μg/ml.
Receptor binding assays contain a total volume of 200 μl containing 50 μg membrane protein, 0.15 nM ^125I-methylPhe^7-neurokinin B, drug or blocker in TBS containing 1.0 mg/ml bovine serum albumen, 0.2 mg/ml bacitracin, 20 ug/ml leupeptin and 20 μg/ml chymostatin. Incubations are carried out for 2 hours at 4° C., and the membrane proteins are harvested by passing the incubation mixture by rapid filtration over presoaked GF/B filters to separate bound from free ligand. […] After filtration of the incubation mixture, filters are rinsed 4 times with ice-cold TBS containing 0.01% sodium dodecyl sulfate and counted in a β-plate scintillation counter. […] Data are collected in duplicate determinations, averaged, and the percent inhibition of total specific binding is calculated. […]

| Compound | pIC50 |
| --- | --- |
| CC[C@H](NC(=O)c1cc(-c2ccccc2)nc2ccncc12)c1ccccc1 [Compound 1] | 7.30 |
| CC[C@H](NC(=O)c1cc(-c2ccccc2)nc2ccsc12)c1ccccc1 [Compound 2] | 7.10 |
| CC[C@H](NC(=O)c1cc(-c2ccccc2)nc2ncccc12)c1ccccc1 [Compound 3] | 7.00 |
